Experimental data taken from patent publication US11246877B2, “Nanoparticles for chemotherapy, targeted therapy, photodynamic therapy, immunotherapy, and any combination thereof” (The University of Chicago, priority 2016, dated 2022).
Like-named read-outs stand apart in the source and are kept apart here.

Key:
H460 cells = experiment: In vitro cytotoxicity against non-small cell lung cancer cells, MTS, 72 h; type: cell-based; conditions: Homo sapiens, NCI-H460
Method: H460 and A549 cells seeded on 96-well plates at a density of 2000 cells/well were treated with Zn/PTX and free PTX at various […] concentrations for 72 h. The cell viability was then detected by MTS assay (Promega, USA) and the IC50 values were calculated accordingly.

CT26 cells [1] = experiment: In vitro cytotoxicity of NCP-2/DHA; type: cell-based, murine
Method: (§1) The cytotoxicity of NCP-2/DHA was evaluated against two colon cancer cell lines CT26 and MC38. […] The combination index (CI50) for the two drugs was lower than 1 in some drug effect levels, indicating the syngestic effect between two drugs.

MC38 cells [2] = experiment: In vitro cytotoxicity of NCP-2/DHA; type: cell-based, murine
Method: as §1

CT26 cells [3] = experiment: In vitro cytotoxicity of NCP-3/DHA; type: cell-based, murine
Method: (§2) The cytotoxicity of NCP-3/DHA was evaluated against two colon cancer cell lines CT26 and MC38.

MC38 cells [4] = experiment: In vitro cytotoxicity of NCP-3/DHA; type: cell-based, murine
Method: as §2

SKOV-3 cells = experiment: In vitro cytotoxicity in ovarian cancer cells, MTS, 72 h; type: cell-based; conditions: Homo sapiens, SK-OV-3; SKOV-3, 72 h, DHA concentration; read-out: IC50 of DHA (numbers in parenthesis)
Method: (§3) A2780, A2780/CDDP, and SKOV-3 cells were seeded into 96-well plate at 2000 cells/well for 24 h. Afterwards cells were treated with free DHA or Zn/DHA at various concentrations and incubated for another 72 h. The cell viability was then determined via MTS assay by microplate reader.
(§4) A2780, A2780/CDDP, and SKOV-3 cells were seeded into 96-well plate at 2000 cells/well for 24 h. Afterwards cells were treated with different formulations at various concentrations and incubated for another 72 h. The cell viability was then determined via MTS assay by microplate reader.

A2780/CDDP cells [5] = experiment: as above; type: cell-based
Method: as §3, §4

A2780 cells = experiment: as above; type: cell-based; conditions: Homo sapiens; A2780, 72 h, DHA concentration; read-out: IC50 of DHA (numbers in parenthesis)
Method: as §3, §4

CT26 cells [6] = experiment: In vitro PDT cytotoxicity; type: cell-based, murine; conditions: read-out: Oxaliplatin IC50
Method: (§5) The cytotoxicity of NCP-2@pyrolipid was evaluated against two colorectal cancer cells including murine colorectal adenocarcinoma CT26 and human colorectal adenocarcinoma HT29 cells. By combining chemotherapy of oxaliplatin and PDT modalities into one single nanoparticle, NCP-2@pyrolipid induces apoptosis/necrosis as well as elicit immunogenic cell death upon LED light irradiation. […] However, upon irradiation at 54 J/cm^2 light irradiation (670 nm), the oxaliplatin IC50 of NCP-2@pyrolipid was decreased by ˜4-fold and ˜5-fold in CT26 and HT29 cells, respectively.

CT26 cells [7] = experiment: In vitro cytotoxicity of NCP-2/PTX, MTS; type: cell-based, murine; conditions: read-out: Oxaliplatin IC50
Method: (§6) The cytotoxicity of NCP-2/PTX was evaluated against two colorectal cancer cells including murine colorectal adenocarcinoma CT26 and murine colorectal carcinoma MC38. By combining two chemotherapeutic agents with vastly different solubility requirements, NCP-2/PTX elicited substantial anticancer efficacy owing to synergy between the drugs.
(§7) The IC50 of oxaliplatin was substantially lower than that of paclitaxel by MTS assay, likely due to the hydrophobicity of paclitaxel. Paclitaxel was prepared in a stock solution of 3:1 ethanol:water ratio at 1 mg/ml before subsequent dilution to prepare free drug doses. The combination index (CI50) for the two drugs was much more favorable for the 1:1 compared to 2:1 molar ratio, with equal oxaliplatin doses.

MC38 cells [8] = experiment: In vitro cytotoxicity of NCP-2/PTX, MTS; type: cell-based, murine; conditions: MC38, drug ratio 1:1; read-out: Oxaliplatin IC50
Method: as §6, §7

CT26 cells [9] = experiment: In vitro cytotoxicity of NCP-2/MTX; type: cell-based, murine; conditions: CT26, drug ratio 2:1; read-out: Oxaliplatin IC50
Method: (§8) The cytotoxicity of NCP-2/MTX was evaluated against two syngeneic cancer cell lines:colorectal adenocarcinoma CT26 and colorectal carcinoma MC38. By combining two chemotherapeutic agents with vastly different solubility requirements, NCP-2/MTX elicited substantial anticancer efficacy owing to synergy between the drugs. […] The combination index (CI50) for the two drugs was much more favorable for the 2:1 compared to 1:1 molar ratio, with equal Pt doses.

MC38 cells [10] = experiment: In vitro cytotoxicity of NCP-2/MTX; type: cell-based, murine; conditions: MC38, drug ratio 1:1; read-out: Oxaliplatin IC50
Method: as §8

CT26 cells [11] = experiment: Immunogenic cell death: cell surface CRT by flow cytometry; type: cell-based, murine; conditions: CT26, oxaliplatin 10 μM and/or DHA 20 μM, 24 h
Method: In Vitro Immunogenic Cell Death The immunogenic cell death induced by NCP-3/DHA was evaluated by flow cytometry and ELISA. For flow cytometry analysis, CT26 cells were seeded at 1×10^6 cells per well in 6-well plates and further cultured for 24 h. The culture media were replaced by 2 mL of fresh culture media containing 10% FBS. Oxaliplatin, DHA, chol-DHA, oxaliplatin+DHA, NCP-3, Zn/DHA and NCP-3/DHA were added to the cells, respectively, at equivalent oxaliplatin and/or DHA dose of 10 μM and 20 μM, respectively. Cells incubated with PBS served as control. Following incubation of 24 h, the cells were collected, incubated with AlexaFluor 488-CRT antibody for 2 h, and stained with PI. The samples were analyzed by flow cytometer (LSRII Orange, BD, Franklin Lakes, N.J., United States of America) to identify cell surface CRT. The fluorescence intensity of stained cells was gated on PI-negative cells.

CT26 cells [12] = experiment: HMGB-1 release by ELISA; type: cell-based, murine; conditions: CT26, oxaliplatin 10 μM and/or DHA 20 μM, 48 h
Method: The release of high mobility group box-1 (HMGB-1) protein after ICD was evaluated by ELISA. CT26 cells were seeded at 1×10^6 cells per well in 6-well plates and further cultured for 24 h. The culture media were replaced by 2 mL of fresh culture media containing 10% FBS. Oxaliplatin, DHA, chol-DHA, oxaliplatin+DHA, NCP-3, Zn/DHA, NCP-3/DHA, and NCP-3/OA-DHA were added to the cells, respectively, at equivalent oxaliplatin and/or DHA dose of 10 μM and 20 μM, respectively. Cells incubated with PBS served as control. Following incubation of 48 h, the supernatant was collected and analyzed by an ELISA kit (Chondrex, Inc., Redmond, Wash., United States of America) by microplate reader.

HT29 cells = experiment: In vitro PDT cytotoxicity; type: cell-based, human; conditions: read-out: Oxaliplatin IC50
Method: as §5

CT26 cells [13] = experiment: In vitro PDT evoked immunogenic cell death (surface CRT); type: cell-based, murine; conditions: with or without irradiation, Pt 5 μM, pyrolipid 1.6 μM
Method: Calreticulin (CRT) is a distinct biomarker exposed on the surface of cells undergoing immunogenic cell death (ICD). The immunogenic cell death induced by NCP-2@pyrolipid was evaluated by immunofluorescence and flow cytometry. For immunofluorescence analysis, CT26 cells were seeded at 5×10^5 cells per well in 6-well plates and further cultured for 24 h. The culture media were replaced by 2 mL of fresh culture media containing 10% FBS. Oxaliplatin, NCP-2, NCP-2@pyrolipid, and porphysome were added to the cells, respectively, at an equivalent Pt dose of 5 μM and pyrolipid dose of 1.6 μM. Cells incubated with PBS served as control. After 24-h incubation, the cells were irradiated with LED light (670 nm) at 100 mW/cm^2 for 15 min (equal to 90 J/cm^2). Following further incubation of 4 h, the cells were washed with PBS three times, fixed with 4% paraformaldehyde, incubated with AlexaFluor 488-CRT antibody for 2 h, stained with DAPI, and observed under CLSM using 405 nm and 488 nm lasers for visualizing nuclei and CRT expression on the cell membrane, respectively. […] The samples were analyzed by flow cytometer (LSRII Orange, BD, Franklin Lakes, N.J., United States of America) to identify cell surface CRT. The fluorescence intensity of stained cells was gated on PI-negative cells.

CT26 cells [14] = experiment: Apoptosis/necrosis by Annexin V flow cytometry; type: cell-based, murine; conditions: CT26, 24 h, oxaliplatin concentration 10 μM
Method: CT26 cells seeded in 24-well plates at 1×10^5 cells/well were first incubated with NCP-3/DHA or appropriate controls for 24 h at an oxaliplatin concentration of 10 μM. The floating and adherent cells were collected and stained with Alexa Fluor 488 AnnexinV/dead cell apoptosis kit (Invitrogen, USA) according to manufacturer's instructions. The apoptosis and necrosis were examined by a flow cytometry (LSRII Blue, BD, Franklin Lakes, N.J., United States of America).

H69 cells = experiment: In vitro cytotoxicity of NCP-1/ET/siRNA in SCLC, MTS, 72 h; type: cell-based
Method: (§9) Small cell lung cancer (SCLC) cell lines H82 and H69 cells were seeded into 96-well plate at 2000 cells/well for 24 h. Afterwards, cells were treated by cisplatin, ET, cisplatin+ET, NCP-1, NCP-1/ET, and NCP-1/ET/siRNAs at various concentrations and incubated for another 72 h. The cell viability was then determined via MTS assay by microplate reader.

H82 cells [15] = experiment: as above; type: cell-based
Method: as §9

A2780/CDDP cells [16] = experiment: In vitro cytotoxicity of cisplatin, OTS167 and NCP-1/OTS167; type: cell-based
Method: The cytotoxicity of NCP-1/OTS167 with different molar ratio was then evaluated.

H82 cells [17] = experiment: In vitro cytotoxicity against small cell lung cancer cells, MTS, 96 h; type: cell-based; conditions: Homo sapiens, NCI-H82, etoposide concentration
Method: H82 cells seeded on 96-well plates at a density of 2000 cells/well were treated with Zn/ET and free etoposide at various etoposide concentrations for 96 h. The cell viability was then detected by MTS assay (Promega, Madison, Wis., United States of America) and the IC50 values were calculated accordingly. […] ET is likely released from Zn/ET via intracellular reduction by endogenous thiol groups as shown below in Scheme 9.

[18] = Mus musculus, CT26, DHA concentration, read-out: DHA IC50
[19] = Mus musculus, MC-38, MC38, DHA concentration, read-out: DHA IC50
[20] = CT26, read-out: Oxaliplatin IC50
[21] = MC38, read-out: Oxaliplatin IC50

Structure (SMILES): CC(=O)O[C@H]1C(=O)[C@@]2(C)[C@H]([C@H](OC(=O)c3ccccc3)[C@]3(O)C[C@H](OC(=O)[C@H](O)[C@@H](NC(=O)c4ccccc4)c4ccccc4)C(C)=C1C3(C)C)[C@]1(OC(C)=O)CO[C@@H]1C[C@@H]2O [PTX, Paclitaxel]
- IC50 (H460 cells): 10.8 ± 0.44 µM

Structure (SMILES): C[C@H]1[C@@H](O)O[C@@H]2O[C@@]3(C)CC[C@H]4[C@H](C)CC[C@@H]1[C@@]24OO3 [DHA, dihydroartemisinin]
- IC50 (CT26 cells [1]; [18]): 7.77 ± 2.68 µM
- IC50 (MC38 cells [2]; [19]): 4.83 ± 1.12 µM
- IC50 (CT26 cells [3]; [18]): 6.25 ± 1.53 µM
- IC50 (MC38 cells [4]; [19]): 9.68 ± 1.12 µM
- IC50 (SKOV-3 cells): 9.9 ± 0.34 µM
- IC50 (A2780/CDDP cells [5]; DHA concentration, read-out: IC50 of DHA (numbers in parenthesis)): 2.61 ± 0.18 µM
- IC50 (A2780 cells): 0.3 ± 0.11 µM

Structure (SMILES): O=C1[O][Pt]2([NH][C@@H]3CCCC[C@H]3[NH]2)[O]C1=O [oxaliplatin]
- IC50 (CT26 cells [6]; CT26, irradiation No): 5.05 ± 0.95 µM
- IC50 (CT26 cells [6]; CT26, irradiation Yes (670 nm, 54 J/cm^2)): 4.97 ± 0.49 µM
- IC50 (CT26 cells [7]; CT26 (cell-line cell empty), drug ratio 2:1): 10.2 ± 0.98 µM
- IC50 (CT26 cells [7]; CT26, drug ratio 1:1): 7.05 ± 0.95 µM
- IC50 (MC38 cells [8]): 3.35 ± 0.13 µM
- IC50 (CT26 cells [1]; [20]): 5.77 ± 1.06 µM
- IC50 (MC38 cells [2]; [21]): 7.87 ± 1.32 µM
- IC50 (CT26 cells [3]; [20]): 10.3 ± 1.62 µM
- IC50 (MC38 cells [4]; [21]): 12.8 ± 1.32 µM
- IC50 (CT26 cells [9]): 7.05 ± 0.59 µM
- IC50 (MC38 cells [10]): 3.35 ± 0.13 µM
- cell surface CRT expression (CT26 cells [11]): caused cell surface CRT expression
- HMGB-1 release (CT26 cells [12]): HMGB-1 release
- IC50 (HT29 cells; HT29, irradiation No): 1.44 ± 0.32 µM
- IC50 (HT29 cells; HT29, irradiation Yes (670 nm, 54 J/cm^2)): 1.87 ± 0.31 µM
- surface CRT expression (CT26 cells [13]): significant amounts of CRT
- apoptosis and necrosis (CT26 cells [14]): caused necrosis

Structure (SMILES): N.N.[Cl][Pt][Cl] [Cisplatin, cisplatin]
- IC50 (H69 cells): 13.2 ± 0.35 µM
- IC50 (H82 cells [15]): 7.93 ± 0.7 µM
- IC50 (A2780/CDDP cells [16]; cisplatin concentration, read-out: IC50, Cisplatin): 12.8 ± 0.19 µM
- IC50 (A2780/CDDP cells [5]; cisplatin concentration, read-out: IC50 of cisplatin): 19.8 ± 4.01 µM

Structure (SMILES): COc1cc([C@@H]2c3cc4c(cc3[C@@H](O[C@@H]3O[C@@H]5CO[C@@H](C)O[C@H]5[C@H](O)[C@H]3O)[C@H]3COC(=O)[C@H]23)OCO4)cc(OC)c1O [Etoposide]
- IC50 (H82 cells [17]): 8.83 ± 0.13 µM
- IC50 (H69 cells; Homo sapiens, NCI-H69): 42.2 ± 0.61 µM
- IC50 (H82 cells [15]; Homo sapiens, NCI-H82): 30.9 ± 0.37 µM

Structure (SMILES): CC(=O)c1cnc2ccc(-c3cc(Cl)c(O)c(Cl)c3)nc2c1N[C@H]1CC[C@H](CN(C)C)CC1 [OTS167]
- IC50 (A2780/CDDP cells [16]; OTS167 concentration, read-out: IC50, OTS167): 0.0121 ± 0.00046 µM
